Data published in ChEMBL document CHEMBL3885861, “Open TG-GATES”.

Species: Rattus norvegicus
Experiment: Open TG-GATES - Regimen: Single
Type: toxicity, organism-based, Sprague-Dawley
Design: regimen Single, gender Male, age 6 weeks
Conditions: in vivo, po, 3 mg/kg, route gavage, dose level Low; for APTT / Bas / Eos / Fbg / Hb / Ht / Lym / MCH / MCHC / MCV / Mono / Neu / PT / Plat / RBC / Ret / WBC: tissue Blood; for KIDNEY_L / KIDNEY_R / KIDNEY_TOTAL: tissue Kidney; for LIVER: tissue Liver; for A/G / ALP / ALT / AST / BUN / CRE / Ca / Cl / DBIL / GLC / IP / K / LDH / Na / PL / RALB / TBIL / TC / TG / TP / gamma-GTP: tissue Plasma

C=CCO [ALLYL ALCOHOL]
TERMINAL_BW (3 h): 223.5 g
APTT (3 h): 18.8 s
Bas (3 h): 0%
Eos (3 h): 1%
Fbg (3 h): 234.6 mg/dL
Hb (3 h): 13.8 g/dL
Ht (3 h): 38.7%
Lym (3 h): 76%
MCH (3 h): 21.7 pg
MCHC (3 h): 35.6%
MCV (3 h): 60.9 fL
Mono (3 h): 3.2%
Neu (3 h): 19.8%
PT (3 h): 11.8 s
Plat (3 h): 126.8 x10_4/uL
RBC (3 h): 635.2 x10_4/ul
Ret (3 h): 6.4%
WBC (3 h): 81.6 x10_2/uL
KIDNEY_L (3 h): 1 g
KIDNEY_R (3 h): 1 g
KIDNEY_TOTAL (3 h): 2 g
LIVER (3 h): 10.2 g
A/G (3 h): 1.6
ALP (3 h): 1094.8 IU/L
ALT (3 h): 37.4 IU/L
AST (3 h): 67.6 IU/L
BUN (3 h): 11.4 mg/dL
CRE (3 h): 0.4 mg/dL
Ca (3 h): 11.2 mg/dL
Cl (3 h): 100.6 meq/L
DBIL (3 h): 0.5 mg/dL
GLC (3 h): 195.2 mg/dL
IP (3 h): 8.6 mg/dL
K (3 h): 3.7 meq/L
LDH (3 h): 235.4 IU/L
Na (3 h): 139.8 meq/L
PL (3 h): 181 mg/dL
RALB (3 h): 3.5 g/dL
TBIL (3 h): 0.6 mg/dL
TC (3 h): 81 mg/dL
TG (3 h): 262 mg/dL
TP (3 h): 5.7 g/dL
gamma-GTP (3 h): 0.6 IU/L
TERMINAL_BW (6 h): 220.1 g
APTT (6 h): 19 s
Bas (6 h): 0%
Eos (6 h): 1%
Fbg (6 h): 220.8 mg/dL
Hb (6 h): 13.2 g/dL
Ht (6 h): 38.3%
Lym (6 h): 76%
MCH (6 h): 21 pg
MCHC (6 h): 34.3%
MCV (6 h): 61 fL
Mono (6 h): 3.8%
Neu (6 h): 18.8%
PT (6 h): 12.2 s
Plat (6 h): 122.5 x10_4/uL
RBC (6 h): 627.4 x10_4/ul
Ret (6 h): 7.1%
WBC (6 h): 102.5 x10_2/uL
KIDNEY_L (6 h): 0.9 g
KIDNEY_R (6 h): 1 g
KIDNEY_TOTAL (6 h): 1.9 g
LIVER (6 h): 9.4 g
A/G (6 h): 1.6
ALP (6 h): 1095 IU/L
ALT (6 h): 33 IU/L
AST (6 h): 70.6 IU/L
BUN (6 h): 7.8 mg/dL
CRE (6 h): 0.4 mg/dL
Ca (6 h): 10.7 mg/dL
Cl (6 h): 102.8 meq/L
DBIL (6 h): 0.1 mg/dL
GLC (6 h): 192.4 mg/dL
IP (6 h): 8.7 mg/dL
K (6 h): 3.9 meq/L
LDH (6 h): 222.4 IU/L
Na (6 h): 141.2 meq/L
PL (6 h): 149.6 mg/dL
RALB (6 h): 3.4 g/dL
TBIL (6 h): 0.2 mg/dL
TC (6 h): 76.4 mg/dL
TG (6 h): 77.8 mg/dL
TP (6 h): 5.5 g/dL
gamma-GTP (6 h): 1 IU/L
TERMINAL_BW (9 h): 215.7 g
APTT (9 h): 18.7 s
Bas (9 h): 0%
Eos (9 h): 1.2%
Fbg (9 h): 221.8 mg/dL
Hb (9 h): 13.4 g/dL
Ht (9 h): 39.1%
Lym (9 h): 75.8%
MCH (9 h): 20.9 pg
MCHC (9 h): 34.3%
MCV (9 h): 61 fL
Mono (9 h): 3.2%
Neu (9 h): 20.2%
PT (9 h): 12.2 s
Plat (9 h): 124 x10_4/uL
RBC (9 h): 640.4 x10_4/ul
Ret (9 h): 6.9%
WBC (9 h): 65 x10_2/uL
KIDNEY_L (9 h): 1 g
KIDNEY_R (9 h): 1 g
KIDNEY_TOTAL (9 h): 2 g
LIVER (9 h): 9.1 g
A/G (9 h): 1.5
ALP (9 h): 994.6 IU/L
ALT (9 h): 27.6 IU/L
AST (9 h): 59.2 IU/L
BUN (9 h): 9.6 mg/dL
CRE (9 h): 0.3 mg/dL
Ca (9 h): 10.5 mg/dL
Cl (9 h): 101.8 meq/L
DBIL (9 h): 0.08 mg/dL
GLC (9 h): 210.2 mg/dL
IP (9 h): 10.7 mg/dL
K (9 h): 3.8 meq/L
LDH (9 h): 169.2 IU/L
Na (9 h): 140.8 meq/L
PL (9 h): 143 mg/dL
RALB (9 h): 3.3 g/dL
TBIL (9 h): 0.1 mg/dL
TC (9 h): 71.8 mg/dL
TG (9 h): 62 mg/dL
TP (9 h): 5.5 g/dL
gamma-GTP (9 h): 0.8 IU/L
TERMINAL_BW (24 h): 232.9 g
APTT (24 h): 20.4 s
Bas (24 h): 0%
Eos (24 h): 1%
Fbg (24 h): 230 mg/dL
Hb (24 h): 13.6 g/dL
Ht (24 h): 39.9%
Lym (24 h): 78.8%
MCH (24 h): 20.5 pg
MCHC (24 h): 34%
MCV (24 h): 60.4 fL
Mono (24 h): 3.4%
Neu (24 h): 16.4%
PT (24 h): 11.7 s
Plat (24 h): 127.6 x10_4/uL
RBC (24 h): 660.4 x10_4/ul
Ret (24 h): 6.2%
WBC (24 h): 97.6 x10_2/uL
KIDNEY_L (24 h): 1 g
KIDNEY_R (24 h): 1 g
KIDNEY_TOTAL (24 h): 2 g
LIVER (24 h): 11.2 g
A/G (24 h): 1.5
ALP (24 h): 863.4 IU/L
ALT (24 h): 35 IU/L
AST (24 h): 64.4 IU/L
BUN (24 h): 16 mg/dL
CRE (24 h): 0.4 mg/dL
Ca (24 h): 10.9 mg/dL
Cl (24 h): 101.8 meq/L
DBIL (24 h): 0.098 mg/dL
GLC (24 h): 202.8 mg/dL
IP (24 h): 7.2 mg/dL
K (24 h): 4 meq/L
LDH (24 h): 204.6 IU/L
Na (24 h): 141 meq/L
PL (24 h): 154.4 mg/dL
RALB (24 h): 3.4 g/dL
TBIL (24 h): 0.2 mg/dL
TC (24 h): 77 mg/dL
TG (24 h): 118.2 mg/dL
TP (24 h): 5.6 g/dL
gamma-GTP (24 h): 0.8 IU/L
